Results taken from ChEMBL document CHEMBL1212758 (Antimicrob Agents Chemother, 2010).

Tests used:
[1] = tested on: Macacine alphaherpesvirus 1; test: Antiviral activity against Macacine herpesvirus 1 isolate MR5 infected in african green monkey Vero cells by plaque reduction assay; assay type: functional, organism-based; conditions: Macacine alphaherpesvirus 1, isolate MR5, Vero
[2] = tested on: Macacine alphaherpesvirus 1; test: Antiviral activity against Macacine herpesvirus 1 isolate MR6 infected in african green monkey Vero cells by plaque reduction assay; assay type: functional, organism-based; conditions: Macacine alphaherpesvirus 1, isolate MR6, Vero
[3] = tested on: Macacine alphaherpesvirus 1; test: Antiviral activity against Macacine herpesvirus 1 isolate MR7 infected in african green monkey Vero cells by plaque reduction assay; assay type: functional, organism-based; conditions: Macacine alphaherpesvirus 1, isolate MR7, Vero
[4] = tested on: Macacine alphaherpesvirus 1; test: Antiviral activity against Macacine herpesvirus 1 isolate MR8 infected in african green monkey Vero cells by plaque reduction assay; assay type: functional, organism-based; conditions: Macacine alphaherpesvirus 1, isolate MR8, Vero
[5] = tested on: Macacine alphaherpesvirus 1; test: Antiviral activity against Macacine herpesvirus 1 isolate MR9 infected in african green monkey Vero cells by plaque reduction assay; assay type: functional, organism-based; conditions: Macacine alphaherpesvirus 1, isolate MR9, Vero
[6] = tested on: Macacine alphaherpesvirus 1; test: Antiviral activity against Macacine herpesvirus 1 isolate MR10 infected in african green monkey Vero cells by plaque reduction assay; assay type: functional, organism-based; conditions: Macacine alphaherpesvirus 1, isolate MR10, Vero
[7] = tested on: Macacine alphaherpesvirus 1; test: Antiviral activity against Macacine herpesvirus 1 isolate MR11 infected in african green monkey Vero cells by plaque reduction assay; assay type: functional, organism-based; conditions: Macacine alphaherpesvirus 1, isolate MR11, Vero
[8] = tested on: Macacine alphaherpesvirus 1; test: Antiviral activity against Macacine herpesvirus 1 isolate MR1 infected in african green monkey Vero cells by plaque reduction assay; assay type: functional, organism-based; conditions: Macacine alphaherpesvirus 1, isolate MR1, Vero
[9] = tested on: Macacine alphaherpesvirus 1; test: Antiviral activity against Macacine herpesvirus 1 isolate MR2 infected in african green monkey Vero cells by plaque reduction assay; assay type: functional, organism-based; conditions: Macacine alphaherpesvirus 1, isolate MR2, Vero
[10] = tested on: Macacine alphaherpesvirus 1; test: Antiviral activity against Macacine herpesvirus 1 isolate A1 infected in african green monkey Vero cells by plaque reduction assay; assay type: functional, organism-based; conditions: Macacine alphaherpesvirus 1, isolate A1, Vero
[11] = tested on: Macacine alphaherpesvirus 1; test: Antiviral activity against Macacine herpesvirus 1 isolate A2 infected in african green monkey Vero cells by plaque reduction assay; assay type: functional, organism-based; conditions: Macacine alphaherpesvirus 1, isolate A2, Vero
[12] = tested on: Macacine alphaherpesvirus 1; test: Antiviral activity against Macacine herpesvirus 1 isolate A3 infected in african green monkey Vero cells by plaque reduction assay; assay type: functional, organism-based; conditions: Macacine alphaherpesvirus 1, isolate A3, Vero
[13] = tested on: Macacine alphaherpesvirus 1; test: Antiviral activity against Macacine herpesvirus 1 isolate A4 infected in african green monkey Vero cells by plaque reduction assay; assay type: functional, organism-based; conditions: Macacine alphaherpesvirus 1, isolate A4, Vero
[14] = tested on: Macacine alphaherpesvirus 1; test: Antiviral activity against Macacine herpesvirus 1 isolate A5 infected in african green monkey Vero cells by plaque reduction assay; assay type: functional, organism-based; conditions: Macacine alphaherpesvirus 1, isolate A5, Vero
[15] = tested on: Macacine alphaherpesvirus 1; test: Antiviral activity against Macacine herpesvirus 1 isolate A6 infected in african green monkey Vero cells by plaque reduction assay; assay type: functional, organism-based; conditions: Macacine alphaherpesvirus 1, isolate A6, Vero
[16] = tested on: Macacine alphaherpesvirus 1; test: Antiviral activity against Macacine herpesvirus 1 isolate MC1 infected in african green monkey Vero cells by plaque reduction assay; assay type: functional, organism-based; conditions: Macacine alphaherpesvirus 1, isolate MC1, Vero
[17] = tested on: Macacine alphaherpesvirus 1; test: Antiviral activity against Macacine herpesvirus 1 isolate MC2 infected in african green monkey Vero cells by plaque reduction assay; assay type: functional, organism-based; conditions: Macacine alphaherpesvirus 1, isolate MC2, Vero
[18] = tested on: Macacine alphaherpesvirus 1; test: Antiviral activity against Macacine herpesvirus 1 isolate MJ1 infected in african green monkey Vero cells by plaque reduction assay; assay type: functional, organism-based; conditions: Macacine alphaherpesvirus 1, isolate MJ1, Vero
[19] = tested on: Macacine alphaherpesvirus 1; test: Antiviral activity against Macacine herpesvirus 1 isolate MJ2 infected in african green monkey Vero cells by plaque reduction assay; assay type: functional, organism-based; conditions: Macacine alphaherpesvirus 1, isolate MJ2, Vero
[20] = tested on: Macacine alphaherpesvirus 1; test: Antiviral activity against Macacine herpesvirus 1 isolate MJ3 infected in african green monkey Vero cells by plaque reduction assay; assay type: functional, organism-based; conditions: Macacine alphaherpesvirus 1, isolate MJ3, Vero
[21] = tested on: Macacine alphaherpesvirus 1; test: Antiviral activity against Macacine herpesvirus 1 isolate MP1 infected in african green monkey Vero cells by plaque reduction assay; assay type: functional, organism-based; conditions: Macacine alphaherpesvirus 1, isolate MP1, Vero
[22] = tested on: Human alphaherpesvirus 1; test: Antiviral activity against HSV1 infected in african green monkey Vero cells by plaque reduction assay; assay type: functional, organism-based; conditions: Human alphaherpesvirus 1, Vero
[23] = tested on: Human alphaherpesvirus 2; test: Antiviral activity against HSV2 infected in african green monkey Vero cells by plaque reduction assay; assay type: functional, organism-based; conditions: Human alphaherpesvirus 2, Vero
[24] = tested on: Macacine alphaherpesvirus 1; test: Antiviral activity against Macacine herpesvirus 1 infected in rabbits assessed as survival after 5 months; assay type: functional
[25] = tested on: Macacine alphaherpesvirus 1; test: Antiviral activity against Macacine herpesvirus 1 isolate E2490 infected in african green monkey Vero cells by plaque reduction assay; assay type: functional, organism-based; conditions: Macacine alphaherpesvirus 1, isolate E2490, Vero
[26] = tested on: Macacine alphaherpesvirus 1; test: Antiviral activity against Macacine herpesvirus 1 isolate MR3 infected in african green monkey Vero cells by plaque reduction assay; assay type: functional, organism-based; conditions: Macacine alphaherpesvirus 1, isolate MR3, Vero
[27] = tested on: Macacine alphaherpesvirus 1; test: Antiviral activity against Macacine herpesvirus 1 isolate MR4 infected in african green monkey Vero cells by plaque reduction assay; assay type: functional, organism-based; conditions: Macacine alphaherpesvirus 1, isolate MR4, Vero
[28] = tested on: Macacine alphaherpesvirus 1; test: Antiviral activity against thymidine kinase deficient Macacine herpesvirus 1 isolate E2490 infected in african green monkey Vero cells by plaque reduction assay; assay type: functional, organism-based; conditions: Macacine alphaherpesvirus 1, isolate E2490, Vero

Nc1nc2c(ncn2COCCO)c(=O)[nH]1 [ACYCLOVIR]
EC50 [1]: 19.3 µM | EC50 [2]: 19.3 µM | EC50 [3]: 19.3 µM | EC50 [4]: 19.3 µM | EC50 [5]: 19.3 µM | EC50 [6]: 19.3 µM | EC50 [7]: 19.3 µM | EC50 [8]: 19.3 µM | EC50 [9]: 19.3 µM | EC50 [10]: 19.3 µM | EC50 [11]: 19.3 µM | EC50 [12]: 19.3 µM | EC50 [13]: 19.3 µM | EC50 [14]: 19.3 µM | EC50 [15]: 19.3 µM | EC50 [16]: 19.3 µM | EC50 [17]: 19.3 µM | EC50 [18]: 19.3 µM | EC50 [19]: 19.3 µM | EC50 [20]: 19.3 µM | EC50 [21]: 19.3 µM | EC50 [22]: 19.3 µM | EC50 [23]: 19.3 µM | Activity [24]: 33% | EC50 [25]: 19.3 µM | EC50 [26]: 19.3 µM | EC50 [27]: 19.3 µM

Nc1ncnc2c1ncn2[C@@H]1O[C@H](CO)[C@@H](O)[C@@H]1O [VIDARABINE]
EC50 [1]: 26.5 µM | EC50 [2]: 26.5 µM | EC50 [3]: 26.5 µM | EC50 [4]: 26.5 µM | EC50 [5]: 26.5 µM | EC50 [6]: 26.5 µM | EC50 [7]: 26.5 µM | EC50 [8]: 26.5 µM | EC50 [9]: 26.5 µM | EC50 [10]: 26.5 µM | EC50 [11]: 26.5 µM | EC50 [12]: 26.5 µM | EC50 [13]: 26.5 µM | EC50 [14]: 26.5 µM | EC50 [15]: 26.5 µM | EC50 [16]: 26.5 µM | EC50 [17]: 26.5 µM | EC50 [18]: 26.5 µM | EC50 [19]: 26.5 µM | EC50 [20]: 26.5 µM | EC50 [21]: 26.5 µM | EC50 [22]: 26.5 µM | EC50 [23]: 26.5 µM | EC50 [28]: 37.8 µM | EC50 [25]: 26.5 µM | EC50 [26]: 26.5 µM | EC50 [27]: 26.5 µM
